Laboratory results: ChEMBL document CHEMBL4368857, “New amyloid beta-disaggregating agents: synthesis, pharmacological evaluation, crystal structure and molecular docking of N-(4-((7-chloroquinolin-4-yl)oxy)-3-ethoxybenzyl)amines” (Medchemcomm, 2018)
The source made the active and inactive calls. No cut-off for these calls is given here.

How the values were obtained:
[1] = biological target: T1, Amyloid-beta precursor protein (Homo sapiens, UniProt P05067); experiment: Inhibition of HFIP-pretreated amyloid beta (1 to 42) (unknown origin) self-induced aggregation at 50 uM after 48 hrs by thioflavin T-based fluorometric assay relative to control
[2] = Antioxidant activity assessed as trolox equivalent of AAPH-induced radical scavenging activity at 1 to 8 uM pretreated for 15 mins followed by AAPH addition measured at 1 min interval for 80 mins by ORAC-FL assay; format: functional
[3] = Metal chelating activity assessed as Fe2+-compound complex formation by measuring shift in maximum absorption wavelength at 30 uM after 30 mins by UV-Vis spectroscopic method
[4] = biological target: Acetylcholinesterase (Electrophorus electricus) (UniProt O42275); experiment: Potency index, ratio of donepezil effect to test compound effect for inhibition of electric eel AChE-induced amyloid beta (1 to 42) aggregation
[5] = biological target: T1, Amyloid-beta precursor protein; experiment: Inhibition of HFIP-pretreated amyloid beta (1 to 42) (unknown origin) self-induced aggregation at 25 uM after 48 hrs by thioflavin T-based fluorometric assay relative to control
[6] = Metal chelating activity assessed as Cu2+-compound complex formation by measuring shift in maximum absorption wavelength at 30 uM after 30 mins by UV-Vis spectroscopic method
[7] = Metal chelating activity assessed as stoichiometric ratio of Cu2+-compound complex at 30 uM after 30 mins by Job plot analysis
[8] = biological target: T1, Amyloid-beta precursor protein; experiment: Disaggregation of self-induced amyloid beta (1 to 42) (unknown origin) assessed as appearance of sparse fibrils at 50 uM after 48 hrs by transmission electron microscopic analysis
[9] = Metal chelating activity assessed as Al3+-compound complex formation by measuring shift in maximum absorption wavelength at 30 uM after 30 mins by UV-Vis spectroscopic method
[10] = biological target: T1, Amyloid-beta precursor protein; experiment: Inhibition of HFIP-pretreated amyloid beta (1 to 42) (unknown origin) self-induced aggregation after 48 hrs by thioflavin T-based fluorometric assay
[11] = Metal chelating activity assessed as Zn2+-compound complex formation by measuring shift in maximum absorption wavelength at 30 uM after 30 mins by UV-Vis spectroscopic method
[12] = Inhibition of Cu2+-induced amyloid beta (1 to 42 residues) (unknown origin) aggregation at 50 uM after 24 hrs by thioflavin T-based fluorometric assay relative to control
[13] = biological target: T1, Amyloid-beta precursor protein; experiment: Inhibition of HFIP-pretreated amyloid beta (1 to 42) (unknown origin) self-induced aggregation at 75 uM after 48 hrs by thioflavin T-based fluorometric assay relative to control
[14] = Metal chelating activity assessed as Zn2+-compound complex formation at 30 uM after 30 mins by UV-Vis spectroscopic method
[15] = Metal chelating activity assessed as Al3+-compound complex formation at 30 uM after 30 mins by UV-Vis spectroscopic method

T1 sequence (P05067 whole entry): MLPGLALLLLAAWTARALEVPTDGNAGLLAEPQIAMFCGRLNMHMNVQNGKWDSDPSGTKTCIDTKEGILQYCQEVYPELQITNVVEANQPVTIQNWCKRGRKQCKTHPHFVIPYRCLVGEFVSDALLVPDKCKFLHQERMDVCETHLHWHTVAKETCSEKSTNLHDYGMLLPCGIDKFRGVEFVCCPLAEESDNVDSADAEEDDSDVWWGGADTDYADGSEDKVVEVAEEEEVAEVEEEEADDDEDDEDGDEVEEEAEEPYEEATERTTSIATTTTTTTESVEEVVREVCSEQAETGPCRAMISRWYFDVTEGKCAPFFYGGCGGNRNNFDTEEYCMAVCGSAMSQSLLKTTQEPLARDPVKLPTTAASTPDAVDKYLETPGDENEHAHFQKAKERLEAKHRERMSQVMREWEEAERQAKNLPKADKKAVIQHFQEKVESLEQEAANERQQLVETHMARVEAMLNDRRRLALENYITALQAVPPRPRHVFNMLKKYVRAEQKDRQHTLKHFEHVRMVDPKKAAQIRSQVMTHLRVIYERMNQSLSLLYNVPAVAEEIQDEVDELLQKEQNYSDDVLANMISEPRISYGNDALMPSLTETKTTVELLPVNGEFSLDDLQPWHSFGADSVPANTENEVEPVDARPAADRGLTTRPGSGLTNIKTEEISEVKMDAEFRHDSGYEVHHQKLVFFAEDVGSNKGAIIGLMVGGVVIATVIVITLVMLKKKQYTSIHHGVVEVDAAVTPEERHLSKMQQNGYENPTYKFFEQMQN
Acetylcholinesterase (Electrophorus electricus), sequence (O42275 24-633 limits assumed): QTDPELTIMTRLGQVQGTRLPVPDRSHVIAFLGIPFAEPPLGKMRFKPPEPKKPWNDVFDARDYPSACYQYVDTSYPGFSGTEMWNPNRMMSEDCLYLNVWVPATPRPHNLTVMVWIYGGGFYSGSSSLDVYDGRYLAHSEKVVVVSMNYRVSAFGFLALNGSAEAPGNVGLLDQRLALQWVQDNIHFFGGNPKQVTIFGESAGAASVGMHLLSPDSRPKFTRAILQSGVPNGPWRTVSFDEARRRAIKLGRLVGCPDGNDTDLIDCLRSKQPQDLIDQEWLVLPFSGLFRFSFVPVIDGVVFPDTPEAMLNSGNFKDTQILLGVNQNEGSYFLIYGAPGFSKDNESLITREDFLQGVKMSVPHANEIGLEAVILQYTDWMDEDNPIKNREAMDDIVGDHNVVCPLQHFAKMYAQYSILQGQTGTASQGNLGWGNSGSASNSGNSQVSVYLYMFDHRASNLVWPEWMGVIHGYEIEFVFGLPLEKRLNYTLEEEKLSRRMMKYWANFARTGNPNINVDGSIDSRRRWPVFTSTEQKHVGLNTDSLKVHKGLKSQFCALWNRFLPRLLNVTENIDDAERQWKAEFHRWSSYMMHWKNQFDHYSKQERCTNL

`CCOc1cc(CNc2ccc(C)cc2)ccc1Oc1ccnc2cc(Cl)ccc12` gave an inhibition [1] of 46.8% and an Activity (umolequiv/umol) [2] of 2.28.
With `CCOc1cc(CNc2ccc(OC)cc2)ccc1Oc1ccnc2cc(Cl)ccc12` the Activity [3] was 305 nm, the Ratio [4] was > 2 and the inhibition [5] was 26.7%. It also gave an Activity [6] of 304 nm, an inhibition [1] of 53.7% and a Ratio [7] of 0.8. For the same molecule, the Activity [8] was “Active”, the Activity (umolequiv/umol) [2] was 1.95 and the Activity [9] was 304 nm. It also gave an IC50 [10] of 46.4 µM, an Activity [11] of 304 nm and an inhibition [12] of 32.7%. It also gave an inhibition [13] of 6.89%.
`COc1cc(/C=C/C(=O)CC(=O)/C=C/c2ccc(O)c(OC)c2)ccc1O` gave an inhibition [12] of 52.9%.
Molecule `CCOc1cc(CNc2cccc(C(F)(F)F)c2)ccc1Oc1ccnc2cc(Cl)ccc12` has an inhibition [1] of 30% and an Activity (umolequiv/umol) [2] of 1.56.
With `CCOc1cc(CNc2ccccc2)ccc1Oc1ccnc2cc(Cl)ccc12` the Activity [14] was “Active”, the Activity [3] was 305 nm and the Ratio [4] was > 2. For the same molecule, the inhibition [5] was 37.1%, the Activity [6] was 305 nm and the inhibition [1] was 53.6%. The Ratio [7] was 0.5, the Activity [8] was “Active” and the Activity (umolequiv/umol) [2] was 2.72. For the same molecule, the Activity [15] was “Active”, the IC50 [10] was 44.5 µM and the inhibition [12] was 22.4%. The inhibition [13] was 3.37%.
`CCOc1cc(CNc2ccccn2)ccc1Oc1ccnc2cc(Cl)ccc12` gave an inhibition [1] of 41.5% and an Activity (umolequiv/umol) [2] of 0.55.
In the case of `CCOc1cc(CNc2ccc(F)cc2F)ccc1Oc1ccnc2cc(Cl)ccc12`, the inhibition [1] is reported as 27.8% and the Activity (umolequiv/umol) [2] is reported as 2.37.
`CCOc1cc(CNc2cccc(C)n2)ccc1Oc1ccnc2cc(Cl)ccc12` gave an inhibition [1] of 41.6% and an Activity (umolequiv/umol) [2] of 0.87.
